Results on two molecules are retold here after patent US20070207971A1 (priority 2006, published 2007).

Assay [1] relates to influenza A virus (A/WSN/33). The assay is described as follows: ELISA virus capture on streptavidin coated plate. It counts as binding. (In general: ELISA stands for enzyme-linked immunosorbent assay.)
In assay [2] the target is T1, Athrobacter ureafaciens neuraminidase (Paenarthrobacter ureafaciens, UniProt Q5W7Q2).
T1 sequence (Q5W7Q2 39-990): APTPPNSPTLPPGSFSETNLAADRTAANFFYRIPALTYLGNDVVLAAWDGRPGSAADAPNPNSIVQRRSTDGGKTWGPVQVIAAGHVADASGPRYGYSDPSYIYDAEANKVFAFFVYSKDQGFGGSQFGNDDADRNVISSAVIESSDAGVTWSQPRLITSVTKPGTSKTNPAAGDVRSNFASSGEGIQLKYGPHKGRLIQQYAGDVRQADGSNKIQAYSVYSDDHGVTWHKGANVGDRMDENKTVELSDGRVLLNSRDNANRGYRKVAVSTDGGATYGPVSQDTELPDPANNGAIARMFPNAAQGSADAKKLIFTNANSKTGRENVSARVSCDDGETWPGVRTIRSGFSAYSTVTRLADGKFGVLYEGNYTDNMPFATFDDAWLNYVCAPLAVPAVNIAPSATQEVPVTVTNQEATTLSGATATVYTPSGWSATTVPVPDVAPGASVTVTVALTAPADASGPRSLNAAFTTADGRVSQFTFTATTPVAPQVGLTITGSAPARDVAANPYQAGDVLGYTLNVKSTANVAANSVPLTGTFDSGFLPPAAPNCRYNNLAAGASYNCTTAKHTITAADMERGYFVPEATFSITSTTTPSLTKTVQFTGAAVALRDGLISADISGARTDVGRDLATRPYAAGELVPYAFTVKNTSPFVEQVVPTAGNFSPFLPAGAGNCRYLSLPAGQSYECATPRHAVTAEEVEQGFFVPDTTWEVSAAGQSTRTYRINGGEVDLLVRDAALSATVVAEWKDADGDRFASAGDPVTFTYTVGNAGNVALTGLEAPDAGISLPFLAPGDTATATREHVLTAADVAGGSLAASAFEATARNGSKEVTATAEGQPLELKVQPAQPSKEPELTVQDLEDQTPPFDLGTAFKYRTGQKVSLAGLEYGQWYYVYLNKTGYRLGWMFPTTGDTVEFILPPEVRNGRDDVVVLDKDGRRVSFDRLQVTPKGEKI
The assay is described as follows: Western blot analysis of covalent binding (biotinylation) of neuraminidase. The settings on record: 200 μM, 4° C., ammonium acetate buffer 100 mM; bands of 88, 66 and 52 KDa. On the technique in general: In western blotting, separated proteins are transferred to a membrane and probed.

A further assay relates to influenza A virus. Description: ELISA capturing experiment with neuraminidase active site blocked by zanamivir. Type of assay: binding. The settings on record: compound 1 667 μM, zanamivir 67 μM pre-incubation 45 minutes, 9×10^3 PFU, optical density.
Assay [3] concerns the target Clostridium perfringens neuraminidase (Clostridium perfringens, UniProt P10481). Type of assay: biochemical. As to conditions: pH 6.5.
The target in assay [4] is T2, influenza A virus neuraminidase (Influenza A virus, UniProt P03470).
T2 construct: pre-incubated for 45 minutes with influenza A virus (A/WSN/33; 9×10^3 PFU); host or cells: whole virus particles (PFU-titred virus stock)
The assay is described as follows: biochemical. Type of assay: biochemical, influenza A virus (A/WSN/33).

Assay [5] has as its target T1, Athrobacter ureafaciens neuraminidase. Type of assay: biochemical. The settings on record: pH 6.5.
Assay [6] deals with Vibro cholerae neuraminidase (Vibrio cholerae serotype O1, UniProt P0C6E9). Description: biochemical. Type of assay: biochemical. The settings on record: for inhibitory effect on neuraminidase activity: pH 6.5.
Assay [7] addresses Bovine serum albumin (BSA) (Bos taurus, UniProt P02769). Description: Western blot analysis, negative control protein. As to conditions: BSA 0.65 μg/μl with 200 μM, 4° C. Type of assay: binding.
For assay [8], the system named is Japanese encephalitis virus (JEV). The assay is described as follows: ELISA selective capturing experiment. It counts as binding. As to conditions: mixture of influenza A virus and JEV; anti-JEV antibody.

Sequence of Vibro cholerae neuraminidase (P0C6E9 25-781): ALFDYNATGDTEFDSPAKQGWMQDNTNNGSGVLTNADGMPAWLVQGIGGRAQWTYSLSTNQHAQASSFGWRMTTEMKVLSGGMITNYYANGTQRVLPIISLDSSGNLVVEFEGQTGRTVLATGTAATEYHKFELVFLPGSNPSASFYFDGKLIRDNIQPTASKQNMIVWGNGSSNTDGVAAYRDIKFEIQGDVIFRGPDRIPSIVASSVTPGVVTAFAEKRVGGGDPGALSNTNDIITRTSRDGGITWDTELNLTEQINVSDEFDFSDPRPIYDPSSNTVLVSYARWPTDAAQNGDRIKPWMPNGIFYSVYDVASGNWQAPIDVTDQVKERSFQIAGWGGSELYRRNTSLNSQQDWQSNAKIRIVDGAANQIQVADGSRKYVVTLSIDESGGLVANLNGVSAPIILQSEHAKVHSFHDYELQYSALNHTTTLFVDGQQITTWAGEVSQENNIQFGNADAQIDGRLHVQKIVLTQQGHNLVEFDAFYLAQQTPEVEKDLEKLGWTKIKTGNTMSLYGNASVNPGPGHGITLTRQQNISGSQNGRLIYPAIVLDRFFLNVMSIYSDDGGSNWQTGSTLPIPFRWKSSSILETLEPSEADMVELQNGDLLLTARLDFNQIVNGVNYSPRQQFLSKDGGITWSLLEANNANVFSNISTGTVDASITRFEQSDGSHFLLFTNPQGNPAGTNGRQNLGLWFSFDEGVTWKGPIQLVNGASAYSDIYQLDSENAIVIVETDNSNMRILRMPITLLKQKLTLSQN
T2 sequence (P03470 whole entry): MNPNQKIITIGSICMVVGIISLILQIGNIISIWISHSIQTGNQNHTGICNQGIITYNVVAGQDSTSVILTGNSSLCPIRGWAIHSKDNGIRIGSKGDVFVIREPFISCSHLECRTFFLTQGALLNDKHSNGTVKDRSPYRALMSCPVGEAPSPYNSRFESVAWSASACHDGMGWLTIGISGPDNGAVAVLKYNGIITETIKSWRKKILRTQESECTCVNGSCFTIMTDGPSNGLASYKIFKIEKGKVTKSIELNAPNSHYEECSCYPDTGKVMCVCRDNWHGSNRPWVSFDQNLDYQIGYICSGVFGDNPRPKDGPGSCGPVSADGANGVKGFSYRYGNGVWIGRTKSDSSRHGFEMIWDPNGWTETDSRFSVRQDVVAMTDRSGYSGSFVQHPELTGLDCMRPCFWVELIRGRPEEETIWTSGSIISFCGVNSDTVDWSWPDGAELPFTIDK
Sequence of Clostridium perfringens neuraminidase (P10481 whole entry, looked up): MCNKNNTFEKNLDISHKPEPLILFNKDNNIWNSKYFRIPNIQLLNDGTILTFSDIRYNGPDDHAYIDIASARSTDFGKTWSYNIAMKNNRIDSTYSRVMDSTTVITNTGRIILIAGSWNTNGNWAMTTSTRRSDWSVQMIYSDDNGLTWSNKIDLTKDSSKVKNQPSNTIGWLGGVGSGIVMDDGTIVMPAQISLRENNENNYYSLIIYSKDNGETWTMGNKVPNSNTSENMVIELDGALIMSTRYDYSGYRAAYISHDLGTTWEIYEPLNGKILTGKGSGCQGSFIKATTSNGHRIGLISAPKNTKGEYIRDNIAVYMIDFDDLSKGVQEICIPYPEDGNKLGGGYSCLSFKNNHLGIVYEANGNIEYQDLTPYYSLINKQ
Sequence of Bovine serum albumin (BSA) (P02769 25-607): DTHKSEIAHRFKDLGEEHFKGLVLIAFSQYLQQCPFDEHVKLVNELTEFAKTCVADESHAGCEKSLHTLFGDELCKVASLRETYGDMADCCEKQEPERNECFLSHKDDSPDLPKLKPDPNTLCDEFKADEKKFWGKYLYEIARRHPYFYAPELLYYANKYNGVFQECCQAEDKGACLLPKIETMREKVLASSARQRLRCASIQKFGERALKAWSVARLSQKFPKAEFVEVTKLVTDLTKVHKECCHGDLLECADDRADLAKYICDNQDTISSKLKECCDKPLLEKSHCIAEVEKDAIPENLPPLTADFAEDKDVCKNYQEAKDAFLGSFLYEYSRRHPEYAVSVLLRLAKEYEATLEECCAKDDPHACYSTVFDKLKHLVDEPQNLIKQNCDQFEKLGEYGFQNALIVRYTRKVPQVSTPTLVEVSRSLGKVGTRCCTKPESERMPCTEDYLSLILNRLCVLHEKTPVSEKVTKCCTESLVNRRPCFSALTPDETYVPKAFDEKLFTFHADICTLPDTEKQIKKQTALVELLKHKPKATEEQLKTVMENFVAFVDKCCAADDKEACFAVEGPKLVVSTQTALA

`CC(=O)N[C@@H]1C(O)CC(Oc2ccc(NC(=O)CCC(=O)NCCCCCCNC(=O)CCCCC3SCC4NC(=O)NC43)cc2C(F)F)(C(=O)O)OC1[C@H](O)[C@H](O)CO` (stereo partly drawn) [compound 1]: the “capture of influenza A virus on plate wells” value in assay [1] (5 nmol on streptavidin coated plate, virus 3.8×10^2-970×10^2 PFU, anti-Flu A antibody detection) was “successfully captured influenza A virus”. Also, the “capture of influenza A virus from a mixture with JEV” value in assay [1] (mixture of influenza A virus and JEV, anti-Flu A antibody) is “captured and detected”. In addition, in assay [2], the “bands on the PVDF membrane (biotinylated neuraminidase isoenzymes)” value is reported as “three bands”. Besides, the “capture of influenza A virus relative to influenza A virus pretreated with zanamivir” value in the assay with influenza A virus stood at 14 folds. The “inhibitory effect on neuraminidase activity” value in assay [3], in assay [4] (pH 6.5), in [5] and in [6] was “significant inhibitory effect” each time. For the same molecule, the IC50 in [4] was determined as 1700 µM; in [6], 530 µM. Also, the “bands on the PVDF membrane” value in assay [7] is “no band was observed”. Moreover, in assay [8], the “capture of JEV from a mixture with influenza A virus” value was “not JEV”.
For the molecule `CC(=O)N[C@H]1[C@H]([C@H](O)[C@H](O)CO)OC(C(=O)O)=C[C@@H]1N=C(N)N` [zanamivir, reference compound], the “inhibitory effect on neuraminidase activity” value in [3], in assay [5] and in [6] was “only weak inhibitory effect” each time.

In general, IC50 refers to the concentration that gives 50% inhibition.
